Test results published in patent US20250064789A1, “KETOAMIDE DERIVATIVES AND PHARMACEUTICAL USES THEREOF” (priority 2022, published 2025).
Read-outs that look alike come from different tables or passages of the source.

Biological target: recombinant SARS-CoV-2 M^pro (Severe acute respiratory syndrome coronavirus 2 (2019-nCoV) (SARS-CoV-2), UniProt P0DTD1)
Test: Inhibition of SARS-CoV-2 M^pro enzyme activity (fluorescent substrate assay)
Assay type: biochemical
Details: inhibition of SARS-CoV-2 M^pro enzyme activity, read-out: IC50

| Compound | IC50 (values in nM) [nM] | IC50 (values given in μM) [nM] |
| --- | --- | --- |
| C[C@@H](NC(=O)C1CCC(F)(F)CC1)C(=O)N[C@H](Cc1ccccc1F)C(=O)C(=O)NCc1ccccn1 [Compound 361] | 27.2 ± 2.8 |  |
| O=C(NCc1cscn1)C(=O)[C@@H](Cc1ccccc1)NC(=O)[C@H]1COCCN1C(=O)CC1CC1(F)F (stereo partly drawn) [Compound 435] | 58.2 ± 1.3 |  |
| C[C@@H](NC(=O)C1C2CCCC2CN1C(=O)OC(C)(C)C)C(=O)N[C@H](Cc1ccccc1)C(=O)C(=O)NCc1ccccn1 (stereo partly drawn) [Compound 118] | 40.2 ± 3.4 |  |
| C[C@@H](NC(=O)c1cc2ccccc2o1)C(=O)N[C@H](Cc1ccccc1)C(=O)C(=O)NCc1ccccn1 [Compound 72] | 27.7 ± 4.1 |  |
| O=C(NCc1nccs1)C(=O)[C@@H](Cc1ccc(F)cc1)NC(=O)c1ccccc1 [Compound 466] |  | 1950 ± 290 |
| C[C@@H](OCc1ccccc1)C(=O)N[C@H](Cc1ccccc1)C(=O)C(=O)N[C@H](C)c1ccccn1 [Compound 31] |  | > 5000 |
| C[C@@H](NC(=O)C1(F)CCCCC1)C(=O)N[C@H](Cc1ccccc1)C(=O)C(=O)NCc1ccccn1 [Compound 128] | 9.4 ± 1.3 |  |
| O=C(NCc1ccccn1)C(=O)[C@@H](Cc1ccccc1)NC(=O)[C@H]1CCCCN1C(=O)[C@H](NC(=O)c1cnccn1)C1CCCCC1 [Compound 284] | 14.4 ± 0.2 |  |
| O=C(NCc1nccs1)C(=O)[C@@H](Cc1ccccc1)NC(=O)C1(NC(=O)C2CCC(F)(F)C2)CC(F)(F)C1 (stereo partly drawn) [Compound 546] | 71.7 ± 7.1 |  |
| COC[C@@H](NC(=O)C1CCCC(F)(F)C1)C(=O)N[C@H](Cc1ccccc1)C(=O)C(=O)NCc1ccccn1 (stereo partly drawn) [Compound 557] | 26.1 ± 0.4 |  |
| O=C(NCc1ccccn1)C(=O)[C@@H](Cc1ccccc1)NC(=O)C1(NC(=O)C2CCC(O)(C(F)(F)F)CC2)CCC1 (stereo partly drawn) [Compound 205] | 23.9 ± 0.9 |  |
| O=C(NCc1ccccn1)C(=O)[C@@H](Cc1ccccc1)NC(=O)C1(NC(=O)[C@H]2CC[C@@H](F)CC2)CC1 [Compound 162] | 17.5 ± 0.8 |  |
| N#Cc1cc(F)cc(N2CC(=O)N(CC(=O)N[C@H](Cc3ccccc3)C(=O)C(=O)NCc3nccs3)C2=O)c1 [Compound 518, (R)-3-(2-(3-(3-cyano-5-fluorophenyl)-2,5-dioxoimidazolidin-1-yl)acetylamino)-2-oxo-4-phenyl-N-(thiazole-2-ylmethyl) butyramide] | 248.5 ± 1.4 |  |
| CS(=O)(=O)CC[C@@H](NC(=O)C1CCCC(F)(F)C1)C(=O)N[C@H](Cc1ccccc1)C(=O)C(=O)NCc1nccs1 (stereo partly drawn) [Compound 568] | 70.7 ± 1.8 |  |
| CC(C)(C(=O)NC1CCC(F)(F)CC1)C(=O)N[C@H](Cc1ccccc1)C(=O)C(=O)NCc1ccccn1 [Compound 323] | 30.7 ± 1.9 |  |
| CC(C)(C)C[C@@H](NC(=O)C1CCC(F)(F)CC1)C(=O)N[C@H](Cc1ccccc1)C(=O)C(=O)NCc1ccccn1 [Compound 224] | 25.8 ± 1.3 |  |
| O=C(NCc1ccccn1)C(=O)[C@@H](Cc1ccccc1)NC(=O)[C@@H](Cc1ccccc1)NC(=O)[C@H]1CC[C@H](C(F)(F)F)CC1 [Compound 216] | 16.3 ± 0.4 |  |
| O=C(CC1CC(F)(F)C1)NC1(C(=O)N[C@H](Cc2ccccc2)C(=O)C(=O)NCc2ccccn2)CCC1 [Compound 209] | 12.2 ± 0.2 |  |
| C[C@@H](NC(=O)C1CCCCC1)C(=O)N[C@H](Cc1ccccc1)C(=O)C(=O)NCc1ccccn1 [Compound 146] | 12.3 ± 0.2 |  |
| CC(C)(C(=O)N[C@H](Cc1ccccc1)C(=O)C(=O)NCc1nccs1)n1cc(-c2cccc(F)c2)cn1 [Compound 528] | 50.8 ± 1 |  |
| O=C(Cn1cc(-c2ccc(F)c(C(F)(F)F)c2)cn1)N[C@H](Cc1ccccc1)C(=O)C(=O)NCc1nccs1 [Compound 498] | 103 ± 5.3 |  |

| Compound | IC50 (values in nM) [nM] | IC50 (values given in μM) [nM] |
| --- | --- | --- |
| C[C@@H](NC(=O)c1ccc(F)cc1)C(=O)N[C@H](Cc1ccccc1)C(=O)C(=O)NCc1ccccn1 [Compound 140] | 15.5 ± 1 |  |
| O=C(CNC(=O)c1ccccn1)N[C@H](Cc1ccccc1)C(=O)C(=O)NCc1nccs1 [Compound 479] |  | 2240 ± 100 |
| CC(C)[C@@H]1CC[C@@H](C)C[C@H]1OCC(=O)NC1(C(=O)N[C@H](Cc2ccccc2)C(=O)C(=O)NCc2ccccn2)CCC1 [Compound 206] | 18 ± 0.5 |  |
| C[C@H](C(=O)N[C@H](Cc1ccccc1)C(=O)C(=O)NCc1ccccn1)N(C)C(=O)C1CCC(F)(F)CC1 [Compound 119] | 16.5 ± 1.5 |  |
| C[C@@H](NC(=O)C1CCS(=O)(=O)CC1)C(=O)N[C@H](Cc1ccccc1)C(=O)C(=O)NCc1ccccn1 [Compound 116] | 130.1 ± 0.4 |  |
| C[C@@H](NC(=O)C(C)(C)Oc1ccc(Cl)cc1F)C(=O)N[C@H](Cc1ccccc1)C(=O)C(=O)NCc1ccccn1 [Compound 82] | 5.8 ± 0.1 |  |
| CC(C)(OCc1cc(F)cc(Cl)c1)C(=O)N[C@H](Cc1ccccc1)C(=O)C(=O)NCc1ccccn1 [Compound 19] | 45.2 ± 1.2 |  |
| C[C@@H](NC(=O)C1CCC(F)(F)CC1)C(=O)N[C@H](Cc1ccccc1)C(=O)C(=O)NCc1c[nH]cn1 [Compound 346] |  | > 2500 |
| O=C(NCc1ccccn1)C(=O)[C@@H](Cc1ccccc1)NC(=O)C1(NC(=O)C2CCC(F)(F)CC2)CCC1 [Compound 187] | 10.7 ± 0.5 |  |
| O=C(NCc1ccccn1)C(=O)[C@@H](Cc1ccccc1)NC(=O)[C@@H](Cc1ccccn1)NC(=O)C1CCC(F)(F)CC1 [Compound 217] | 27.3 ± 1.2 |  |
| CC(C)[C@@H](OCc1ccc(F)cc1)C(=O)N[C@H](Cc1ccccc1)C(=O)C(=O)NCc1ccc(Cl)cn1 [Compound 49] | 14.7 ± 0.4 |  |
| CC(C)(C)C(NC(=O)C1CCC(F)(F)CC1)C(=O)N[C@H](Cc1ccccc1)C(=O)C(=O)NCc1ccccn1 (stereo partly drawn) [Compound 237] | 132 ± 4.4 |  |
| COc1cccnc1CNC(=O)C(=O)[C@@H](Cc1ccccc1)NC(=O)[C@@H](C)NC(=O)C1CCC(F)(F)CC1 [Compound 339] |  | 6130 ± 220 |
| O=C(NCc1ccccn1)C(=O)[C@@H](Cc1ccccc1)NC(=O)C1(NC(=O)c2cc(C(F)(F)F)[nH]n2)CCC1 [Compound 198] | 18.1 ± 2.7 |  |
| O=C(CC1CCC(F)(F)CC1)NCC(=O)N[C@H](Cc1ccccc1)C(=O)C(=O)NCc1nccs1 [Compound 390] | 21.8 ± 1.1 |  |
| C[C@@H](NC(=O)C1CCC(F)(F)CC1)C(=O)N[C@H](Cc1ccccc1)C(=O)C(=O)NCc1ccncn1 [Compound 338] | 20 ± 0.8 |  |
| CC(Oc1ccc(C2CC2(Cl)Cl)cc1)C(=O)N[C@H](C)C(=O)N[C@H](Cc1ccccc1)C(=O)C(=O)NCc1ccccn1 (stereo partly drawn) [Compound 97] | 37.2 ± 4.8 |  |
| COC[C@@H](NC(=O)C1CCCC(F)(F)C1)C(=O)N[C@H](Cc1ccccc1)C(=O)C(=O)NCc1ncsn1 (stereo partly drawn) [Compound 564] | 774 ± 8.8 |  |
| O=C(CNC(=O)C1CCOCC1)N[C@H](Cc1ccccc1)C(=O)C(=O)NCc1ccccn1 [Compound 446] | 414.1 ± 1.8 |  |
| CC[C@@H](C)C(NC(=O)c1ccc(F)cc1)C(=O)N[C@H](Cc1ccccc1)C(=O)C(=O)NCc1ccccn1 (stereo partly drawn) [Compound 251] | 34.2 ± 0.5 |  |
| C[C@@H](NC(=O)C1CCC(F)(F)CC1)C(=O)N[C@H](Cc1ccccc1)C(=O)C(=O)NCc1ncccc1Cl [Compound 341] |  | 11500 ± 3790 |

| Compound | IC50 (values in nM) [nM] | IC50 (values given in μM) [nM] |
| --- | --- | --- |
| C[C@@H](OCc1ccc(Cl)cc1)C(=O)N[C@H](Cc1ccccc1)C(=O)C(=O)NCc1ccccn1 [Compound 13] | 14.3 ± 0.4 |  |
| C[C@@H](NC(=O)COc1ccc(Cl)c(Cl)c1)C(=O)N[C@H](Cc1ccccc1)C(=O)C(=O)NCc1ccccn1 [Compound 71] | 10.9 ± 0.5 |  |
| O=C(CNC(=O)c1cccnc1)N[C@H](Cc1ccccc1)C(=O)C(=O)NCc1nccs1 [Compound 480] |  | 2230 ± 370 |
| CC(C)c1ccc(OCC(=O)N[C@H](C)C(=O)N[C@H](Cc2ccccc2)C(=O)C(=O)NCc2ccccn2)cc1 [Compound 68] | 12.4 ± 1.1 |  |
| O=C(CNC(=O)C1CCC(F)(F)CC1)N[C@H](Cc1ccc(Cl)cc1Cl)C(=O)C(=O)NCc1ccccn1 [Compound 451] | 34.4 ± 1.8 |  |
| C[C@@H](NC(=O)C1CCC(F)(F)CC1)C(=O)N[C@H](Cc1ccc(F)cc1)C(=O)C(=O)NCc1ccccn1 [Compound 359] | 36.4 ± 1.9 |  |
| O=C(Cn1cc(-c2ccc(F)c(Cl)c2)c(C(F)(F)F)n1)N[C@H](Cc1ccccc1)C(=O)C(=O)NCc1nccs1 [Compound 500] | 38.9 ± 0.5 |  |
| Cc1cc(-c2cc(Cl)cc(C#N)c2)nn1CC(=O)N[C@H](Cc1ccccc1)C(=O)C(=O)NCc1nccs1 [Compound 515] | 26.2 ± 0.3 |  |
| CC1(C)[C@@H]2[C@@H](C(=O)N[C@H](Cc3ccccc3)C(=O)C(=O)NCc3ccccn3)N(C(=O)C3CCC(F)(F)CC3)C[C@@H]21 [Compound 262] | 933.7 ± 5 |  |
| C[C@@H](NC(=O)Cc1cc(F)cc(F)c1)C(=O)N[C@H](Cc1ccccc1)C(=O)C(=O)NCc1ccccn1 [Compound 79] | 10.9 ± 0.1 |  |
| O=C(NCc1ccccn1)C(=O)[C@@H](Cc1ccccc1)NC(=O)[C@H]1Cc2ccccc2CN1C(=O)N1CCC(F)(F)CC1 [Compound 311] | 16.7 ± 0.6 |  |
| O=C(Cc1noc(-c2ccc(Cl)cc2F)n1)N[C@H](Cc1ccccc1)C(=O)C(=O)NCc1nccs1 [Compound 521] | 441 ± 4.5 |  |
| O=C(NCc1ccccn1)C(=O)[C@@H](Cc1ccccc1)NC(=O)[C@H]1C[C@@H]2CCCC[C@@H]2N1C(=O)C1CCC(F)(F)CC1 [Compound 265] | 15.6 ± 0.1 |  |
| COC[C@@H](NC(=O)C1CCCC(F)(F)C1)C(=O)N[C@H](Cc1ccccc1)C(=O)C(=O)NCc1nnc(C)o1 (stereo partly drawn) [Compound 559] |  | > 2500 |
| O=C(NCc1nccs1)C(=O)[C@@H](Cc1cc(F)c(F)cc1F)NC(=O)c1ccccc1 [Compound 467] |  | 3370 ± 180 |
| O=C(NCc1nccs1)C(=O)[C@@H](Cc1cccc(Cl)c1)NC(=O)c1ccccc1 [Compound 469] |  | 1430 ± 150 |
| C[C@@H](OCc1c(F)cccc1F)C(=O)N[C@H](Cc1ccccc1)C(=O)C(=O)NCc1ccccn1 [Compound 3] | 411 ± 28.2 |  |
| C[C@@H](NC(=O)c1ccc(Cl)cc1)C(=O)N[C@H](Cc1ccccc1)C(=O)C(=O)NCc1ccccn1 [Compound 144] | 19 ± 0.3 |  |
| CN(C(=O)C1CCC(F)(F)CC1)C1(C(=O)N[C@H](Cc2ccccc2)C(=O)C(=O)NCc2ccccn2)CC1 [Compound 167] |  | 3810 ± 170 |
| CN(CC(=O)N[C@H](Cc1ccccc1)C(=O)C(=O)NCc1ccccn1)C(=O)C1CCC(F)(F)CC1 [Compound 156] | 33.4 ± 0.9 |  |
| O=C(NCc1ccccn1)C(=O)[C@@H](Cc1ccccc1)NC(=O)C1(NC(=O)C2CCCCCC2)CCC1 [Compound 195] | 30.8 ± 0.1 |  |
